Test results taken from patent US10471139B2, “Toll-like receptor agonists” (The University of Kansas, priority 2013, dated 2019).
Like-named read-outs stand apart in the source and are kept apart here.

Experiments:
human TLR7 = target: T1, human TLR7 (Homo sapiens, UniProt Q9NYK1); experiment: Human TLR7 reporter gene assay (NF-κB induction), HEK-Blue-7 cells; assay type: cell-based
T1 construct: expressed in transfected cells; host or cells: HEK293 (HEK-Blue-7)
T1 sequence (Q9NYK1 27-1049): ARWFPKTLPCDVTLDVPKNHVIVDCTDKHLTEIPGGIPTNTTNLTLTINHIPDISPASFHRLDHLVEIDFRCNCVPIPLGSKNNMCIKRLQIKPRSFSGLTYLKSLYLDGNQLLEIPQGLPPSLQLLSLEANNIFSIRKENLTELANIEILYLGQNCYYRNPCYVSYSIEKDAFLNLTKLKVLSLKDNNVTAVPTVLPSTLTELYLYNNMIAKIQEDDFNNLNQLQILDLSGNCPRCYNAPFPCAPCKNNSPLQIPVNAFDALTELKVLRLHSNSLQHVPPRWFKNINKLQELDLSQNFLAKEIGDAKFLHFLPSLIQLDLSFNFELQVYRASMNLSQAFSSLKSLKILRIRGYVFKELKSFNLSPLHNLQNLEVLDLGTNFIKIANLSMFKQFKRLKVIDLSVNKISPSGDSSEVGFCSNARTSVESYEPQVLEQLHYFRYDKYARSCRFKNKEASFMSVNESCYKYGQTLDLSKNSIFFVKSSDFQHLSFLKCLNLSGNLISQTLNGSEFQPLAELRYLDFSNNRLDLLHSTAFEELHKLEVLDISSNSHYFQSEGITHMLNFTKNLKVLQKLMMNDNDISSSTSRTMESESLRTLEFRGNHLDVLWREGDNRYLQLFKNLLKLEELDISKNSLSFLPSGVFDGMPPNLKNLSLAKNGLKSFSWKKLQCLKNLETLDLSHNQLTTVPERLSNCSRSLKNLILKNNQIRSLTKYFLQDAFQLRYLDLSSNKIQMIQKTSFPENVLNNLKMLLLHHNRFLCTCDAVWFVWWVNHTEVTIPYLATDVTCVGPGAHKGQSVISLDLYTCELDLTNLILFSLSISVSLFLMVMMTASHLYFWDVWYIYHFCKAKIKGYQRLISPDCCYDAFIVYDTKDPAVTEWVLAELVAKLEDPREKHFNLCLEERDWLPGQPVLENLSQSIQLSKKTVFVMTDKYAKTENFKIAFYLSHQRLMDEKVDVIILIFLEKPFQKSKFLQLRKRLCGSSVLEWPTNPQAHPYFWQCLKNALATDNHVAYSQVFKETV
Text: (§1) Human TLR-7/-8 Reporter Gene Assays (NF-κB Induction).
(§2) The induction of NF-κB was quantified using HEK-Blue-7 (hTLR7-specific) and HEK-Blue-8 (hTLR8-specific) cells. HEK293 cells stably co-transfected with human TLR7 or human TLR8, MD2, and secreted alkaline phosphatase (sAP), were maintained in HEK-Blue™ Selection medium containing zeocin and normocin. Stable expression of secreted alkaline phosphatase (sAP) under control of NF-κB/AP-1 promoters is inducible by appropriate TLR agonists, and extracellular sAP in the supernatant is proportional to NF-κB induction.
(§3) HEK293 cells stably co-transfected with the appropriate hTLR (or NOD) and secreted alkaline phosphatase (sAP) were maintained in HEK-Blue™ Selection medium. Stable expression of secreted alkaline phosphatase (sAP) under control of NF-κB/AP-1 promoters is inducible by appropriate TLR/NOD agonists, and extracellular sAP in the supernatant is proportional to NF-κB induction.

human PBMCs [1] = experiment: IFN-α induction in human PBMCs (ELISA); assay type: cell-based; settings: PBMC
Protocol: (§4) Fresh human peripheral blood mononuclear cells (hPBMC) were isolated from human blood obtained by venipuncture with informed consent and as per institutional guidelines on Ficoll-Hypaque gradients as described elsewhere. Aliquots of PBMCs (10^5 cells in 100 μL/well) were stimulated for 12 h with graded concentrations of test compounds. Supernatants were isolated by centrifugation, and were assayed in triplicates using either high-sensitivity multi-subtype IFN-α ELISA kits (PBL Interferon Source, Piscataway, N.J. and R&D Systems, Inc., Minneapolis, Minn.), or analyte-specific multiplexed cytokine/chemokine bead array assays as reported by us previously.

[2] = test system: human natural killer (NK), cytokine-induced killer (CIK) and nominal B lymphocytes; experiment: Flow-cytometric CD69 upregulation in lymphocytic subsets of whole human blood; assay type: cell-based
Protocol: Flow-Cytometric Immunostimulation Experiments.
CD69 upregulation was determined by flow cytometry and modified for rapid-throughput. Briefly, heparin-anticoagulated whole blood samples were obtained by venipuncture from healthy human volunteers with informed consent and as per guidelines approved by the University of Kansas Human Subjects Experimentation Committee. Serial dilutions of selected imidazopyridine compounds (and imiquimod, used as a reference compound) were performed using a Bio-Tek Precision 2000 XS liquid handler in sterile 96-well polypropylene plates, to which were added 100 μL aliquots of anticoagulated whole human blood. The plates were incubated at 37° C. for 16.5 h. Negative (endotoxin free water) controls were included in each experiment. Following incubation, fluorochrome-conjugated antibodies (CD3-PE, CD56-APC, CD69-PE-Cy7, 10 μL of each antibody, Becton-Dickinson Biosciences, San Jose, Calif.) were added to each well with a liquid handler, and incubated at 37° C. in the dark for 30 min. […] CD69 activation in the major lymphocytic populations, viz., natural killer lymphocytes (NK cells: CD3^−CD56^+), cytokine-induced killer phenotype (CIK cells: CD3^+CD56^+), nominal B lymphocytes (CD3^−CD56^−), and nominal T lymphocytes (CD3^+CD56^−) were quantified using FlowJo v 7.0 software (Treestar, Ashland, Oreg.). […]

[3] = Metabolic stability in human foreskin fibroblasts (microdialysis, LC-MS/MS); assay type: in vitro ADME; settings: human, human foreskin fibroblasts (HFFs)
[4] = test system: human foreskin fibroblasts (HFFs); experiment: as above; assay type: in vitro ADME
[5] = Metabolic stability in peripheral blood mononuclear cells (microdialysis, LC-MS/MS); assay type: in vitro ADME, human; settings: human, peripheral blood mononuclear cells (PBMCs)
[6] = test system: peripheral blood mononuclear cells (PBMCs); experiment: as above; assay type: in vitro ADME, human; settings: PBMCs
human TLR8 = target: T2, human TLR8 (Homo sapiens, UniProt Q9NR97); experiment: Human TLR8 reporter gene assay (NF-κB induction), HEK-Blue-8 cells; assay type: cell-based
T2 construct: expressed in transfected cells; host or cells: HEK293 (HEK-Blue-8)
T2 sequence (Q9NR97 27-1041): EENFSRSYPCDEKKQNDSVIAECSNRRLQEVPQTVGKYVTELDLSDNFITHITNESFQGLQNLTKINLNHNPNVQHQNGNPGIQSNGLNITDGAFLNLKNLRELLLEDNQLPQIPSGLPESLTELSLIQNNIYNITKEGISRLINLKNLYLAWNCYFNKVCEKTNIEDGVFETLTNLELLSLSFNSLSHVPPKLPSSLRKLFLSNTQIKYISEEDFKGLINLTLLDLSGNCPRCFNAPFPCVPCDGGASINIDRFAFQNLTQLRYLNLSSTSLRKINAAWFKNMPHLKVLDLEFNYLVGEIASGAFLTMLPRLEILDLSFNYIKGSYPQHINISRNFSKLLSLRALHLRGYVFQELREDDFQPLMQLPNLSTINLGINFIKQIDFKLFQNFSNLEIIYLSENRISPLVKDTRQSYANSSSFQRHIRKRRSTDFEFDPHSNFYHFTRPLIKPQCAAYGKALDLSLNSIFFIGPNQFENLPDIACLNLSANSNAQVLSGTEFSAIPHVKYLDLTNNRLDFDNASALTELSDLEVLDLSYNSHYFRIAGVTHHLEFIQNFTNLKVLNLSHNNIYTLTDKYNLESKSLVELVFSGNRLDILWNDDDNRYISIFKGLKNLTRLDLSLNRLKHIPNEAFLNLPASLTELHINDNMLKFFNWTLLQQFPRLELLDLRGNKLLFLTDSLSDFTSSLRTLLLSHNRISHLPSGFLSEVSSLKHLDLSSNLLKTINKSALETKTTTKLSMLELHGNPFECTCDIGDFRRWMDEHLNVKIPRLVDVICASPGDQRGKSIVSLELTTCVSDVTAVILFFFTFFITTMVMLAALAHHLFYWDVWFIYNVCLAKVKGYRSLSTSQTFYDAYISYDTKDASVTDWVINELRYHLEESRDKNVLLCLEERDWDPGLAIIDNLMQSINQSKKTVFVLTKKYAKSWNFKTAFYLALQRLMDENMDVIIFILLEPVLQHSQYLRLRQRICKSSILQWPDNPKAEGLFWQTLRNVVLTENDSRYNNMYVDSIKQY
Text: as §1, §2, §3

human PBMCs [7] = experiment: Proinflammatory cytokine induction in human PBMCs / human blood (bead array); assay type: cell-based; settings: human PBMCs and whole human blood
Protocol: Immunoassays for Interferon (IFN)-α, and Cytokines.
as §4

[8] = Chemical stability of the free base (autoxidation); assay type: physicochemical; settings: rapid formation of 3-ol A5 by autoxidation
Text: A ring-contracted 2-amino-3-alkylindole analogue compound A4, accessed via sequential C-alkylation of commercially available 2-nitrophenylacetonitrile, reduction of the 2-nitro group, and Brønsted acid-promoted, microwave-assisted intramolecular cyclization (Scheme A1).

[9] = human TLR7-specific reporter gene assay, Inactive = no activity up to 500 μg/mL, read-out: hTLR7-agonistic Activity (EC50)
[10] = human TLR7-specific reporter gene assay, Inactive = no activity up to 500 μg/mL

## CCCCc1nc2c(N)nc(NCc3ccco3)cc2n1Cc1ccccc1 [Compound 19k, 1-Benzyl-2-butyl-N^6-(furan-2-ylmethyl)-1H-imidazo[4,5-c]pyridine-4,6-diamine]
Human TLR7; fold over compound 5
  TLR7-agonistic potency relative to compound 5: approximately twenty-fold
Human TLR7; [9]
  EC50: 75 nM
Human PBMCs [1]
  EC50: 700 nM

## CCCCc1nc2c(N)nc(NCc3ccc(CN)cc3)cc2n1Cc1ccccc1 [Compound 19p, N^6-(4-(aminomethyl)benzyl)-1-benzyl-2-butyl-1H-imidazo[4,5-c]pyridine-4,6-diamine]
Human PBMCs [1]
  EC50: 300 nM
[2]
  CD69 expression in natural killer, cytokine-induced killer and B lymphocytic subsets: as active as the reference TLR7 agonist IMDQ
[3]
  half-life: < 1 h
[4]; FIG. 5B, Table A, cell type not stated
  number of major metabolites identified by LC-MS/MS: 6
[4]; HFFs, at 1 hour
  parent detected by LC-MS: nearly undetectable
[5]
  half-life: 3 h
[6]
  time by which parent was depleted: ≤ 8 h

## CCCCCn1c(N)nc2c(C)cccc21 [Compound A31a, 4-Methyl-1-pentyl-1H-benzo[d]imidazol-2-amine]
Human TLR8; primary screens, read-out: TLR8-agonistic activity EC50
  EC50: 1130 nM
Human PBMCs [7]
  induction of proinflammatory cytokines, IL-12p40 and IFN-γ: induction
[2]
  CD69 upregulation in natural killer (NK) lymphocytes: complete absence

## CCCCC1C(N)=Nc2ccccc21 (stereo not drawn) [Compound A4]
Human TLR8; human TLR 8-specific reporter gene assays
  hTLR8 Agonistic Activity (EC50): Unstable
Human TLR8; hydrochloride salt
  TLR8-agonistic activity of the hydrochloride salt: inactive
[8]
  stability of the free-base: exceedingly unstable

## CCCCc1nc2c(NCc3ccccc3)nccc2n1Cc1ccccc1 [Compound 11b, N,1-Dibenzyl-2-butyl-1H-imidazo[4,5-c]pyridin-4-amine]
Human TLR7; [10]
  hTLR7-agonistic Activity (EC50): Inactive

## CCCCc1cc2c(nc(CCCC)n2Cc2ccccc2)c(N)n1 [Compound 23a, 1-Benzyl-2,6-dibutyl-1H-imidazo[4,5-c]pyridin-4-amine]
Human TLR7; [9]
  EC50: 280 nM

## CCCCc1nc2c(N)nc(NCc3ccc(CNc4cc5c(nc(CCCC)n5Cc5ccccc5)c(N)n4)cc3)cc2n1Cc1ccccc1 [Compound 19r, N^6,N^6′-(1,4-phenylenebis(methylene))bis(1-benzyl-2-butyl-1H-imidazo[4,5-c]pyridine-4,6-diamine)]
Human TLR7; [9]
  EC50: 1080 nM

## CCCCNc1cc2c(nc(CCCC)n2Cc2ccccc2)c(N)n1 [Compound 19b, 1-Benzyl-N^6,2-dibutyl-1H-imidazo[4,5-c]pyridine-4,6-diamine]
Human TLR7; [9]
  EC50: 340 nM

## CCCCc1nc2c(N)nc(-c3ccoc3)cc2n1Cc1ccccc1 [Compound 23e, 1-Benzyl-2-butyl-6-(furan-3-yl)-1H-imidazo[4,5-c]pyridin-4-amine]
Human TLR7; [10]
  hTLR7-agonistic Activity (EC50): Inactive

## CCCCc1nc2c(N)nccc2n1Cc1ccccc1 [Compound 5, 1-Benzyl-2-butyl-1H-imidazo[4,5-c]pyridin-4-amine]
Human TLR7; primary screen, read-out: TLR7-specific agonistic activity EC50
  EC50: 1570 nM
Human TLR8; TLR7 series
  TLR8 activity: negligible

## CCCCc1nc2c(N)nc(NCc3ccc(C(F)(F)F)cc3)cc2n1Cc1ccccc1 [Compound 19i, 1-Benzyl-2-butyl-N^6-(4-(trifluoromethyl)benzyl)-1H-imidazo[4,5-c]pyridine-4,6-diamine]
Human TLR7; [9]
  EC50: 1040 nM

## CCCCc1nc2c(N)nc(NCc3cccc(CNc4cc5c(nc(CCCC)n5Cc5ccccc5)c(N)n4)c3)cc2n1Cc1ccccc1 [Compound 19s, N^6,N^6′-(1,3-phenylenebis(methylene))bis(1-benzyl-2-butyl-1H-imidazo[4,5-c]pyridine-4,6-diamine)]
Human TLR7; [10]
  hTLR7-agonistic Activity (EC50): Inactive

## CCCCc1nc2c(N)nc(NCc3cccc4ccccc34)cc2n1Cc1ccccc1 [Compound 19n, 1-Benzyl-2-butyl-N^6-(naphthalen-1-ylmethyl)-1H-imidazo[4,5-c]pyridine-4,6-diamine]
Human TLR7; [10]
  hTLR7-agonistic Activity (EC50): Inactive
Human TLR7; primary screen
  TLR7-specific agonistic activity EC50: quiescent
